These results are taken from patent publication US8663607B2, “Ferrate(VI)-containing compositions and methods of using ferrate(VI)” (Battelle Memorial Institute, priority 2007, dated 2014).

A short description of data set [1]: Stain removal from calcium deficient hydroxyapatite disks (human tooth model), tea stain. Conditions: disk T: 1 mL of 3% hydrogen peroxide + 0.5 g sodium bicarbonate, applied twice, 5 minutes, water soak 45 minutes. As to the method:
Tea staining Solution: 200 mL of high-purity deionized (HPDI) water was heated to boiling in a 500-mL beaker. The beaker was removed from heat and 4 Lipton™ tea bags were added. The tea bags were allowed to soak for 5 minutes. The tea bags were pressed with a spatμLa upon removal to remove liquid.
Tea staining Procedure: A calcium-deficient hydroxyapatite (HAP) disk (Clarkson Chromatography Products) was placed into a 50-mL centrifuge tube with 10 mL of tea solution. The centrifuge tube was gently shaken by hand for 15 minutes. The tea solution was decanted and replaced with 10 mL of HPDI water and vortexed for 30 seconds. The water was decanted and replaced with 10 additional mL of HPDI water and vortexed for 30 seconds. The disk was removed with forceps and patted dry with a tissue. The disk was allowed to air dry at room temperature for at least one hour.
Oxidation resistant chelating buffer: 0.25M 1-Hydroxyethylidenediphosphonic acid (etridonic acid) (Dequest® 2010, Thermphos) (HEPA) was pH adjusted by microtitration with 10N NaOH. 1.28 g of 1-Hydroxyethylidenediphosphonic acid was to a 25-mL volumetric flask and brought to volume with HPDI water. The solution was transferred to a 50-mL beaker with a stir bar and pH adjusted using 10.04N NaOH, monitored with a calibrated pH meter. Aliquat 336® (Cognis) (also suitable is Aliquat 134®) (N-methyl-tri-(n-octyl)ammonium chloride), (N-methyl TOA) or “HEPA” chelating pH Buffer: 2.5-μL of N-methyl TOA was added to 5 mL of pH 7 HEPA buffer and sonicated for 1 minute. pH 7 Sodium Dodecyl Sulfate (SDS)/HEPA Buffer: 10 mg of SDS was added to 5 mL of pH 7 HEPA buffer and sonicated for 1 minute. pH 8 SDS/HEPA Buffer: 10 mg of SDS was added to 5 mL of pH 8 HEPA buffer and sonicated for 1 minute.
• A. A tea stained disk was placed into the bowl of the bowl of a watch glass and 100 μL of pH 7 HEPA buffer was pipetted onto the disk surface. 3.7 mg of potassium ferrate(VI) was added to the disk surface and mixed gently. […] The disk was rinsed at 10 minutes with HPDI water. […] 1 mL of pH 7 HEPA buffer was added followed by 9 mL of HPDI water. 9.7 mg of potassium ferrate(VI) was added. The tube was gently hand shaken for 10 minutes. The disk was removed and rinsed with HPDI water. […] 10 mg of potassium ferrate(VI) was added to 1 mL of pH 7 HEPA buffer in a 50 mL centrifuge tube. 9 mL HPDI water was added, and the solution was shaken for a few seconds followed by the addition of a tea stained HAP disk. The disk was removed at 10 minutes and rinsed with HPDI water. […] 1.3 mg of potassium ferrate(VI) added and mixed into the solution.

The nature of data set [2]: Reactivity of ferrate(VI) in nonpolar media. It is filed as physicochemical. Conditions: such as oils, solvents, waxes.

Turning to `OO` [hydrogen peroxide, reference compound], in data set [1], the “L* (lightness/darkness)” value was 96.9, the “a* (blue/red)” value was 0.4, the “appearance of disk after treatment” value is recorded as “Much of the color was removed” and the “b* (yellow/green)” value came to 0.3. For the same compound, in data set [1], the “reflectance of visible light at 450 nm” value was 89.892, the “reflectance of visible light at 750 nm” value was 94.030 and the “ΔE (versus tea stain)” value is 13.44.
Consider ferrate(VI), for which, in data set [2], the “reactivity in nonpolar media” value was “unreactive”.
